Activity calls are given as the source filed them.
Assays:
[1] = Luminescence Cell-Based Dose Confirmation HTS to Identify Activators of 5'UTR Stem-Loop Driven Alpha-Synuclein mRNA Translation in H4 Neuroglioblastoma Cells. [Related pubchem assays: 1829 (Project Summary), 1814 (Primary HTS)]; type: functional
[2] = Luminescence Cell-Based Dose Response HTS to Identify Activators of Luciferase Translation or Activity in H4 […] Cells. [Related pubchem assays: 1829 (Project Summary), 1814 (Primary HTS)]; type: functional
H4 = assay: Luminescence Cell-Based Dose Response HTS to Identify Activators of 5'UTR Stem-Loop Driven Prion Protein mRNA Translation in H4 Neuroglioblastoma Cells. [Related pubchem assays: 1829 (Project Summary), 1814 (Primary HTS)]; type: functional; conditions: Homo sapiens
[3] = target: FAD-linked sulfhydryl oxidase ALR (Homo sapiens, UniProt P55789); assay: inhibitors of human ALR sulfhydryl oxidase, dose response, biochemical, H2O2 detection, luminescence, cherry-pick (AID 493248)
Leucine aminopeptidase = target: T1, Leucine aminopeptidase (Plasmodium falciparum 3D7, UniProt Q8IL11); assay: P. falciparum M17LAP inhibitors, primary screen, biochemical, fluorogenic H-Leu-NHMec substrate, 1536-well (AID 1619); type: functional
T1 sequence (Q8IL11 whole entry): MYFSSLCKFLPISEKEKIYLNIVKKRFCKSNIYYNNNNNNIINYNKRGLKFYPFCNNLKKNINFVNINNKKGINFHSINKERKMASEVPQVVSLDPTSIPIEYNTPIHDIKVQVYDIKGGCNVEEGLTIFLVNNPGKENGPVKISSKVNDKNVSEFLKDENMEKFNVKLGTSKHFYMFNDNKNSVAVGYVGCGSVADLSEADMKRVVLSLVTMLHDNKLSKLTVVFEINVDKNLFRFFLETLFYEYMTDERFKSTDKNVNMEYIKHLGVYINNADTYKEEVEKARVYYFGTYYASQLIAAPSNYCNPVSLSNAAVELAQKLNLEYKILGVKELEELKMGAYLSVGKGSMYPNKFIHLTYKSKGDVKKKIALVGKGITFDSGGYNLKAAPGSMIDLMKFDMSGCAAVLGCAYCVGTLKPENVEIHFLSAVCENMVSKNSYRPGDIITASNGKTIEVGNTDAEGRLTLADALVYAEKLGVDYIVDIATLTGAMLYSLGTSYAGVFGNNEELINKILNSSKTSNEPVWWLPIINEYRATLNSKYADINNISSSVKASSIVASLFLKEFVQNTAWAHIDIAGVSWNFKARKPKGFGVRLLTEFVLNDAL

Fatty acid synthase [4] = target: T2, Fatty acid synthase (Homo sapiens, UniProt P49327); assay: FAS thioesterase domain inhibitors, dose response, biochemical, endpoint fluorescence intensity, uHTS hits (AID 624327); type: functional;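 further: fluorescence from hydrolysis of an O-methyl fluorescein acyl ester substrate by the enzyme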
Fatty acid synthase [5] = target: T2, Fatty acid synthase; assay: FAS thioesterase domain inhibitors, dose response, biochemical, kinetic fluorescence intensity (AID 624326); type: functional;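 further: rate of fluorescence rise from hydrolysis of a fluorogenic O-methyl fluorescein ester substrate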
Genome polyprotein = Genome polyprotein (dengue virus type 2, UniProt P29990); assay: Dengue-2 NS5 methyltransferase inhibitors, primary screen, biochemical, confirmation dose response (AID 588689); type: functional
[6] = P. falciparum Dd2 growth inhibitors, dose response, SYBR Green, cherry-picked samples (AID 1159567); type: functional, cell-based
[7] = target: T3, RNA-binding protein pos-1 (Caenorhabditis elegans, UniProt G5EF15); assay: inhibitors of POS-1/mex-3 RNA binding, dose response, biochemical, fluorescence polarization (AID 1964);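 further: purified POS-1 fused to maltose binding protein made in E. coli; potency of compounds blocking POS-1 binding to fluorescent RNA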
T3 sequence (G5EF15 whole entry): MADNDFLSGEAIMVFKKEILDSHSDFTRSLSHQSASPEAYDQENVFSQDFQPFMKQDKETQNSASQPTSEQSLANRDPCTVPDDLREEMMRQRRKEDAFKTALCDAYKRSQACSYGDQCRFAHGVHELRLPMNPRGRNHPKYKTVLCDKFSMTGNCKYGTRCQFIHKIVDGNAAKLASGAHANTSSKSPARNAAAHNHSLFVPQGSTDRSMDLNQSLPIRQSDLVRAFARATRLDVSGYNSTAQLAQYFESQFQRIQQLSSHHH

[8] = target: T4, Zinc finger protein mex-5 (Caenorhabditis elegans, UniProt Q9XUB2); assay: MEX-5/TCR-2 RNA interaction inhibitors, dose response, biochemical, C. elegans, fluorescence polarization (AID 1960)
T4 sequence (Q9XUB2 whole entry): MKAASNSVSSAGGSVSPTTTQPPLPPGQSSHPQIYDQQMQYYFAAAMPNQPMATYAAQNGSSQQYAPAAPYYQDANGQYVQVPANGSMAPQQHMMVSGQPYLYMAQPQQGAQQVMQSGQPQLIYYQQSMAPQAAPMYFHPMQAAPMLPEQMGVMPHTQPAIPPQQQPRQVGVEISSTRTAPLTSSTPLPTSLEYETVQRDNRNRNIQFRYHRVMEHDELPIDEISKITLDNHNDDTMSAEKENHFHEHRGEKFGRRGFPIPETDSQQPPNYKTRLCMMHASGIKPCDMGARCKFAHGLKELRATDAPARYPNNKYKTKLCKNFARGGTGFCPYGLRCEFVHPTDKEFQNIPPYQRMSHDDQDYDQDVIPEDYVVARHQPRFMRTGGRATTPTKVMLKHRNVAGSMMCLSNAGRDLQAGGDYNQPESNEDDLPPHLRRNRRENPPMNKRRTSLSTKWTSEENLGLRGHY

FAD-linked sulfhydryl oxidase ALR, sequence (P55789 whole entry): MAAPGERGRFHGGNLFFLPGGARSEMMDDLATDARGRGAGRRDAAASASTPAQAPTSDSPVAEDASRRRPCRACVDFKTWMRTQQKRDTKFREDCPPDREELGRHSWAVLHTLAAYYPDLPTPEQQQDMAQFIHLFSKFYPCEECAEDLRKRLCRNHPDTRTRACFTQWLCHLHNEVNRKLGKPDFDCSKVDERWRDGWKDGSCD
T2 sequence (P49327 whole entry, the tested form may be a part): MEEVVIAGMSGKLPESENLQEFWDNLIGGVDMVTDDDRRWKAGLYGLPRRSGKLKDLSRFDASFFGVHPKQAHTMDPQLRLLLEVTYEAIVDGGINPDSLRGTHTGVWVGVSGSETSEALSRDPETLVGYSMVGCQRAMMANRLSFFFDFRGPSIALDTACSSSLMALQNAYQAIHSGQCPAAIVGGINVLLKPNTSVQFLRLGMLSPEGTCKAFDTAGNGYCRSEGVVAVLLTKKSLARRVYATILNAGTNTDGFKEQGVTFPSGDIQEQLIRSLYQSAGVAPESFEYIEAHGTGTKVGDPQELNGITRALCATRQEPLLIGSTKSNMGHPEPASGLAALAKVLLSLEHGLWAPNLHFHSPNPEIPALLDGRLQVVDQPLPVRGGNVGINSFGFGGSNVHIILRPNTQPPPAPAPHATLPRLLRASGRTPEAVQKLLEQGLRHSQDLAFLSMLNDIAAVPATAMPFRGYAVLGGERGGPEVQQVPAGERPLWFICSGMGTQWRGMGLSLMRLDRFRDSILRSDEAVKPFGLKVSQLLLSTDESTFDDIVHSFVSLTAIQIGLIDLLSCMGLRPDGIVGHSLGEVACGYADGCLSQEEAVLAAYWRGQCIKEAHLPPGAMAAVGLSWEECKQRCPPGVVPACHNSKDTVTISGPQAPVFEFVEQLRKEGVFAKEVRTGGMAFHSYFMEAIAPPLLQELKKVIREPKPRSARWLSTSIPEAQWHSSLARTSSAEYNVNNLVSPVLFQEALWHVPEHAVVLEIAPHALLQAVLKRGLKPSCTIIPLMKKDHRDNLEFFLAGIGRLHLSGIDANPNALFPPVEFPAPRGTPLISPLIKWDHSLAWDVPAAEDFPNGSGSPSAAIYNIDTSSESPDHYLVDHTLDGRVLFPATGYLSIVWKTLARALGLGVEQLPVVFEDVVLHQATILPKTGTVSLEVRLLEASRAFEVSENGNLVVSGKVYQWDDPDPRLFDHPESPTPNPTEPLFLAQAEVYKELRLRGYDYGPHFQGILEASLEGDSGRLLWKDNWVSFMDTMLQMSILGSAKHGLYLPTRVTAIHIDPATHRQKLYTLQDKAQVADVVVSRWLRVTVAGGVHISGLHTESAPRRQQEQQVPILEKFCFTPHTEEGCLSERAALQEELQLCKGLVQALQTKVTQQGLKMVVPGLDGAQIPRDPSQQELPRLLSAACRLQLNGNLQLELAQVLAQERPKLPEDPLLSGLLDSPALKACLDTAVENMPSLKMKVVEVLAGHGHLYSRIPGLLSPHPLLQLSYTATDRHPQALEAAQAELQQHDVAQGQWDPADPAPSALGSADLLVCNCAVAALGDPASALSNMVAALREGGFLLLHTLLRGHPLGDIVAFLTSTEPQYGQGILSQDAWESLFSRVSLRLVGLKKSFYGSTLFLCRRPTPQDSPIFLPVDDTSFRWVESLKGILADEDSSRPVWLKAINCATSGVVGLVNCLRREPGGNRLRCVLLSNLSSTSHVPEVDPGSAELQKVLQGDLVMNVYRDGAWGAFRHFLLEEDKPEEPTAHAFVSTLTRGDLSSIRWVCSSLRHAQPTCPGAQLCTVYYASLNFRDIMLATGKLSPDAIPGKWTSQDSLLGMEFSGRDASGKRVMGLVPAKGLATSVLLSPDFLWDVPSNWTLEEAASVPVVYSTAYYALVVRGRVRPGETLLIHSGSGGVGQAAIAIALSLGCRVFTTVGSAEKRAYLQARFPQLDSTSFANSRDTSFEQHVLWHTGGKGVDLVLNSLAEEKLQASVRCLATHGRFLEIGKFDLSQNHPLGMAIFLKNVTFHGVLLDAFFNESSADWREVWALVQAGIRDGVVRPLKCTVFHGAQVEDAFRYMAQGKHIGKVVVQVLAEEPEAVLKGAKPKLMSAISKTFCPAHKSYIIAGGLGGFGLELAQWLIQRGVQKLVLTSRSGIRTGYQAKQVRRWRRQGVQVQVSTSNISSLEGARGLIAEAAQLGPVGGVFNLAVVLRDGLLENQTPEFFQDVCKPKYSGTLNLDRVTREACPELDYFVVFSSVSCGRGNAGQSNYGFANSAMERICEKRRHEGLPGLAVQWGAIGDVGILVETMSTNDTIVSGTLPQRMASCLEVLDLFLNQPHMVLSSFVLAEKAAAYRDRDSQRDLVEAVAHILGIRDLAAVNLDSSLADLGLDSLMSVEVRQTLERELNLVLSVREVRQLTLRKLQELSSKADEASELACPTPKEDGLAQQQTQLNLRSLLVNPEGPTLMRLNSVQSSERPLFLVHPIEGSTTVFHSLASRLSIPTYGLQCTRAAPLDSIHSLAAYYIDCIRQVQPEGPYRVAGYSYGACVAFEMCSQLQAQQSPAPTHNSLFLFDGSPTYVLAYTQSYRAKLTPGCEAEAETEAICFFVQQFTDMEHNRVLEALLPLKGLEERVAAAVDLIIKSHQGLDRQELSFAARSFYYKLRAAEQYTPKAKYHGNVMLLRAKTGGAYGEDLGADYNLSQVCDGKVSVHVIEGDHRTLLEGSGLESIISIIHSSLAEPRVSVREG
Genome polyprotein, sequence (P29990 2492-3391 limits assumed): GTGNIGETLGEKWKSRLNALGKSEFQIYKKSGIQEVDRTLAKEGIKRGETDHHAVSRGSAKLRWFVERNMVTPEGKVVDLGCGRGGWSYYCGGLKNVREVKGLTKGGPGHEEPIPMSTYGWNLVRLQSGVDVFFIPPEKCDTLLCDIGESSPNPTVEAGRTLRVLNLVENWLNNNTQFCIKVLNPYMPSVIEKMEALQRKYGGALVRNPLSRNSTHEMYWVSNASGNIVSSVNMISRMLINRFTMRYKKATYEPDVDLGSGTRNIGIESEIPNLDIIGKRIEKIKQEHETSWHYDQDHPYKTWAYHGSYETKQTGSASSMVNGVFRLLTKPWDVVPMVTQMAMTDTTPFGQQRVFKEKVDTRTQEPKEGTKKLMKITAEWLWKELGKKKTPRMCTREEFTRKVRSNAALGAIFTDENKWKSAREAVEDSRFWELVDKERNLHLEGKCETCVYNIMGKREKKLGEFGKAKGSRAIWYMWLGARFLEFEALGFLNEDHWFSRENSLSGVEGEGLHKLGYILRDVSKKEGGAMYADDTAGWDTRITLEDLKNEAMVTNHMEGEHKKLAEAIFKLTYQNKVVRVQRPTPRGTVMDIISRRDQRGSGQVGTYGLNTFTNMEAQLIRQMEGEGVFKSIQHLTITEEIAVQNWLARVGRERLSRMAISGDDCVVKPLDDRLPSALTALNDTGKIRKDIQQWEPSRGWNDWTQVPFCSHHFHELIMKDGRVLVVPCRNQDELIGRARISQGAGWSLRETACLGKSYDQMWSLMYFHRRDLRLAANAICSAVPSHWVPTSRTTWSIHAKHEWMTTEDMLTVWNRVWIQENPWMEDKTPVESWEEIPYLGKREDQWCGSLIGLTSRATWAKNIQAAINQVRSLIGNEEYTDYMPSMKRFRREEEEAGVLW

O=C(NCCc1cccs1)C1CC(c2ccc([N+](=O)[O-])cc2)=NO1 (centres undefined)
EC50 [1]: 118 µM (active) | EC50 [2]: 50.8 µM (active) | EC50 (H4): 16.2 µM (active)

COc1ccc(C(=O)CCN2CCc3cc(OC)c(OC)cc3C2)cc1
AC50 [3]: 1.84 µM (active)

O=C(Cn1cnc2ccccc2c1=O)Nc1ccc2c(c1)CCC2
IC50 (Leucine aminopeptidase): 5.23 µM (active)

Nc1[nH]nc2nc(N3CCOCC3)nc(-c3ccccc3)c12
IC50 (Leucine aminopeptidase): 6.77 µM (active)

O=C1CN(C(=O)c2cc([N+](=O)[O-])ccc2Cl)C(c2ccccc2)c2cc(F)ccc2N1 (centres undefined)
IC50 (Fatty acid synthase [4]): 1.36 µM (active) | IC50 (Fatty acid synthase [5]): 1.99 µM (active)

COCCCn1c(SCC(=O)Nc2ccc(C(C)=O)cc2)nc2ccccc2c1=O
EC50 [1]: 13.9 µM (active) | EC50 [2]: 22.8 µM (active) | EC50 (H4): 68.6 µM (active)

CN1C[C@H](C(=O)NC2(C)OC3(O)[C@@H]4CCCN4C(=O)[C@H](Cc4ccccc4)N3C2=O)CC2c3cccc4[nH]cc(c34)C[C@H]21 (some centres undefined)
IC50 (Fatty acid synthase [4]): 10.3 µM (active) | IC50 (Fatty acid synthase [5]): 11.8 µM (active)

O=C(Nn1c(C2CCCCC2)nc2ccccc2c1=O)c1ccc([N+](=O)[O-])cc1Cl
IC50 (Fatty acid synthase [4]): 19.3 µM (active) | IC50 (Fatty acid synthase [5]): 18.9 µM (active)

Cc1cccc(CSC2=NCCN2C(=O)c2ccco2)c1
AC50 [3]: 11 µM (active)

COC(=O)CC(NC(=O)Nc1ccc(C)cc1)c1cccc([N+](=O)[O-])c1 (centres undefined)
IC50 (Fatty acid synthase [4]): 11.5 µM (active) | IC50 (Fatty acid synthase [5]): 8.7 µM (active)

Cc1nn(-c2cc(C)c3ccccc3n2)c2c1CCC2
EC50 [1]: 4.27 µM (active) | EC50 [2]: 18.8 µM (active) | EC50 (H4): 80.3 µM (active)

COc1cccc(/C=C/c2nc(O)nc(O)c2[N+](=O)[O-])c1O
AC50 [3]: 39.1 µM (active) | IC50 (Genome polyprotein): 72.5 µM (active)

Nc1c(Br)cc(Br)c2c1C(=O)c1c(cccc1S(=O)(=O)O)C2=O
IC50 (Genome polyprotein): 96.1 µM (active)

CCOc1ccc(CCNC(=O)COC(=O)c2cc([N+](=O)[O-])ccc2N2CCOCC2)cc1OCC
IC50 (Fatty acid synthase [4]): 10.1 µM (active) | IC50 (Fatty acid synthase [5]): 9.59 µM (active)

Cc1[nH]c2ccccc2c1C(=O)COc1ccccc1
EC50 [1]: 18.7 µM (active) | EC50 [2]: 16.4 µM (active) | EC50 (H4): 13.2 µM (active)

CC(=O)N(C(C)=O)N1C(=O)C2C3c4ccccc4C(c4ccccc43)C2C1=O (centres undefined)
IC50 (Genome polyprotein): 53.8 µM (active)

COc1ccc(C(=O)NCCNc2ncc(C(F)(F)F)cc2Cl)cc1[N+](=O)[O-]
IC50 (Fatty acid synthase [4]): 12.7 µM (active) | IC50 (Fatty acid synthase [5]): 12 µM (active)

CCCC(=O)N1CC2(C1)CN(Cc1ccc(Cl)cc1)[C@@H](CO)c1[nH]c3cc(OC)ccc3c12
AC50 [6]: 5.26 µM (active)

Cc1ccc(NC2CCCN(C(=O)Cc3nonc3C)C2)cc1C (centres undefined)
AC50 [3]: 2.54 µM (active)

Cc1ccc(S(=O)(=O)c2cc3c(=O)n4ccccc4nc3n(CCc3ccccc3)c2=N)cc1
EC50 [7]: 111 µM (inconclusive) | EC50 [1]: 97.9 µM (active) | EC50 [2]: > 120 µM (not active) | EC50 (H4): 0.713 µM (active) | EC50 [8]: 3.75 µM (inconclusive)

Reference: ChEMBL document CHEMBL1201862, “PubChem BioAssay data set” (2004)
